# Entries after “also recorded” stand apart in the source; their conditions may differ.
# Tests used:
# A. baumannii (BAA-1709) = assay: Checkerboard / broth microdilution MIC; assay type: cell-based, Acinetobacter baumannii; conditions: for Change of antibiotic MIC as polymer concentration increased from 1/16×MICp to ½×MICp: with example polycarbonate 200 (table 500); for MIC of rifampicin at 1/2 × MIC of adjuvant: rifampicin with the labelled adjuvant at 1/2 × its MIC; for MIC of rifampicin at 1/4 × MIC of adjuvant: rifampicin with the labelled adjuvant at 1/4 × its MIC; for MIC of rifampicin at 1/8 × MIC of adjuvant: rifampicin with the labelled adjuvant at 1/8 × its MIC
# From the text: To evaluate antibacterial activity of antimicrobial polymer-antibiotic 306 combination therapies, the checkerboard method was used to create chart 400. By using this method, the minimum inhibitory concentration (“MIC”) of antibiotics 306, antimicrobial polymers (e.g., characterized by the first chemical structure 100 and/or the second chemical structure 102), and/or antibiotics 306/antimicrobial polymers (e.g., characterized by the first chemical structure 100 and/or the second chemical structure 102) combination at varying polymer concentrations can be determined. MIC was measured based on the broth microdilution method. 50 microliters (“μL”) of the example polycarbonate 200 at a serious of concentrations (micrograms per milliliter (μg/mL)) was added into a 96-well plate. […] Microbes (e.g., S. aureus, A. baumannii, E. coli, and/or P. aeruginosa) at exponential growth phases were diluted with […] (“MHB”) to about 10^5 colony forming units (“CFU”) per milliliter (CFU/mL), and 100 μL of diluted microbes were added into each well of the 96-well plate with 100 μL of antimicrobial polymer-antibiotic 306 mixture. The 96-well plate was incubated at 37 degrees Celsius (“° C.”) under shaking of 100 revolutions per minute (“rpm”) for about 18 to 20 hours. The concentration at which there was no bacterial growth observed by naked eyes or a microplate reader at 600 nanometers (nm) was recorded as the MIC. The checkerboard experiments were performed three times for each antimicrobial polymer-antibiotic 306 combination.
# A. baumannii BAA-1709 [1] = assay type: cell-based, Acinetobacter baumannii; conditions: for MIC of pure antibiotic over 30 generations: antibiotic only; for Delay of resistance of the bacteria against the antibiotic: in the presence of example polycarbonate 200 at ¼×MICp
# Description: To monitor development of antibiotic 306 resistance in A. baumannii, antibiotics 306 at sub-lethal doses were used in combination with the example polycarbonate 200 to repeatedly treat A. baumannii BAA-1709. With concentrations of the example polycarbonate 200 fixed at ¼ or ½×MIC, the MIC of antibiotics 306 was measured by the broth microdilution method. At half of the antibiotic 306 MIC, the survived bacteria, which reached logarithmic growth phase, were collected for MIC measurement of the subsequent passage. The development of antibiotic 306 resistance was monitored for 30 passages and the MIC of the antibiotics 306 at ¼ or ½×MIC of the antimicrobial polymer (e.g., characterized by the first chemical structure 100 and/or the second chemical structure 102) was recorded for each passage. The resistance development of antibiotics 306 only and polymer only was also evaluated over 30 passages.
# E. coli = assay: Checkerboard / broth microdilution MIC; assay type: cell-based, Escherichia coli
# From the text: To evaluate antibacterial activity of antimicrobial polymer-antibiotic 306 combination therapies, the checkerboard method was used to create chart 400. By using this method, the minimum inhibitory concentration (“MIC”) of antibiotics 306, antimicrobial polymers (e.g., characterized by the first chemical structure 100 and/or the second chemical structure 102), and/or antibiotics 306/antimicrobial polymers (e.g., characterized by the first chemical structure 100 and/or the second chemical structure 102) combination at varying polymer concentrations can be determined. MIC was measured based on the broth microdilution method. 50 microliters (“μL”) of the example polycarbonate 200 at a serious of concentrations (micrograms per milliliter (μg/mL)) was added into a 96-well plate. […] Microbes (e.g., S. aureus, A. baumannii, E. coli, and/or P. aeruginosa) at exponential growth phases were diluted with […] (“MHB”) to about 10^5 colony forming units (“CFU”) per milliliter (CFU/mL), and 100 μL of diluted microbes were added into each well of the 96-well plate with 100 μL of antimicrobial polymer-antibiotic 306 mixture. […] The concentration at which there was no bacterial growth observed by naked eyes or a microplate reader at 600 nanometers (nm) was recorded as the MIC. […]
# [2] = system: antibiotic-resistant strains of bacteria (e.g., A. baumannii); assay: MIC against susceptible and antibiotic-resistant strains (table 700); assay type: cell-based, Acinetobacter baumannii
# From the text: In addition to antibiotic-susceptible bacteria, antibiotic-resistant strains of bacteria (e.g., indicated with a star in FIG. 7) were also employed to study the effect of antibiotic 306/example polycarbonate 200 combination on antibacterial activity.
# A. baumannii strains = assay: Concentrations (1/2 MIC, MBC) for 18 h bactericidal plate test; assay type: cell-based; conditions: Acinetobacter baumannii; all the A. baumannii strains; used together with example polycarbonate 200 at ½ MIC; read-out: minimum bactericidal concentration (“MBC”)
# From the text: (§1) FIG. 13 illustrates a diagram of example, non-limiting table 1300 and/or table 1302, which can depict the synergistic effect of one or more combination therapies, which can comprise one or more antimicrobial polymers (e.g., characterized by the first chemical structure 100 and/or the second chemical structure 102) in combination with one or more antibiotics 306, against various bacteria (e.g., Gram-negative bacteria and/or Gram-positive bacteria) including antibiotic-resistant strains. Repetitive description of like elements employed in other embodiments described herein is omitted for sake of brevity.
# (§2) Further, FIG. 13 illustrates a diagram of example, non-limiting photos 1304 of three-component plates with bacteria treated by example polycarbonate 200, rifampicin, and/or a combination thereof for 18 hours. […] The data and/or photos 1304 depicted in FIG. 13 can be representative of three biological replicates, with the “*” denoting antibiotic-resistant strains of bacteria.
# E. aerogenes = assay: as above; assay type: cell-based; conditions: Klebsiella aerogenes, used together with example polycarbonate 200 at ½ MIC, read-out: minimum bactericidal concentration (“MBC”)
# From the text: as §1, §2
# K. pneumoniae = assay: as above; assay type: cell-based; conditions: Klebsiella pneumoniae, used together with example polycarbonate 200 at ½ MIC, read-out: minimum bactericidal concentration (“MBC”)
# From the text: as §1, §2
# A. baumannii BAA-1709 [3] = assay: Killing kinetics (CFU counting) under combination treatments; assay type: cell-based, Acinetobacter baumannii; conditions: rifampicin 0.008 μg/mL plus the labelled adjuvant at ½×MIC; up to 24 h
# From the text: To compare the efficiency of an antimicrobial polymer/rifampicin combination and an antimicrobial polymer/polymyxin combination, the CFU of A. baumannii BAA-1709 under different combination treatments were studied. […] The results of CFU counting are presented as mean±standard deviation of triplicate samples.
# [4] = system: A. baumannii (e.g., ATCC BAA-1709); assay: Bacterial count after 18 hours of treatment; assay type: cell-based, Acinetobacter baumannii; conditions: treatment for 18 hours; polymer 3.9 or 7.8 μg/mL (graph 1002)
# Description: The results shown in graph 1002 were achieved after treatment for 18 hours.
# Further, FIG. 11 illustrates a diagram of example, non-limiting graph 1102, graph 1110, and/or graph 1118, which can depict that one or more combination therapies comprising one or more antimicrobial polymers (e.g., characterized by the first chemical structure 100, such as example polycarbonate 200, and/or the second chemical structure 102) and one or more antibiotics 306 can show stronger synergistic bactericidal effect than traditional combination therapies as evidenced by the bacterial count after 18 hours of treating A. baumannii (e.g., ATCC BAA-1709).
# [5] = repeated sub-MIC exposure, no polymer
compound,measurement,setting,value
"CC1(C)S[C@@H]2[C@H](NC(=O)Cc3ccccc3)C(=O)N2[C@H]1C(=O)O [Penicillin G, Benzylpenicillin]",MIC of antibiotics 306 w/o polymer,"A. baumannii (BAA-1709); antibiotic alone, no polymer",62.5 µg/mL
same,Change of antibiotic MIC as polymer concentration increased from 1/16×MICp to ½×MICp,A. baumannii (BAA-1709),significantly reduced
same,MIC of antibiotics 306 at 1/2 × MICp,A. baumannii (BAA-1709); with example polyionene 206 at 1/2 × MICp (MICp 7.8 μg/mL),7.8 µg/mL
same,MIC of antibiotics 306 at 1/4 × MICp,A. baumannii (BAA-1709); with example polyionene 206 at 1/4 × MICp (MICp 7.8 μg/mL),31.3 µg/mL
same,MIC of antibiotics 306 at 1/8 × MICp,A. baumannii (BAA-1709); with example polyionene 206 at 1/8 × MICp (MICp 7.8 μg/mL),62.5 µg/mL
same,MIC of antibiotics 306 at 1/16 × MICp,A. baumannii (BAA-1709); with example polyionene 206 at 1/16 × MICp (MICp 7.8 μg/mL),62.5 µg/mL
same,MIC of pure antibiotic over 30 generations,A. baumannii BAA-1709 [1],increased
same,Delay of resistance of the bacteria against the antibiotic,A. baumannii BAA-1709 [1],22 generations
same,MIC of pure antibiotic at generation 5,A. baumannii BAA-1709 [1]; [5],125 µg/mL
same,MIC of pure antibiotic at generation 30,A. baumannii BAA-1709 [1]; [5],1000 µg/mL
same,MIC of pure antibiotic before resistance evolution,A. baumannii BAA-1709 [1]; starting value,62.5 µg/mL
CC[C@H]1OC(=O)[C@H](C)[C@@H](O[C@H]2C[C@@](C)(OC)[C@@H](O)[C@H](C)O2)[C@H](C)[C@@H](O[C@@H]2O[C@H](C)C[C@H](N(C)C)[C@H]2O)[C@](C)(O)C[C@@H](C)CN(C)[C@H](C)[C@@H](O)[C@]1(C)O [azithromycin],Change of antibiotic MIC as polymer concentration increased from 1/16×MICp to ½×MICp,A. baumannii (BAA-1709),significantly reduced
same,Effect of example polycarbonate 200 on antibiotic potency,E. coli,enhance the potency
same,MIC of pure antibiotic over 30 generations,A. baumannii BAA-1709 [1],increased
same,MIC of antibiotic over 30 generations in the presence of example polycarbonate 200 at ¼×MICp,A. baumannii BAA-1709 [1]; polymer fixed at ¼×MICp,did not change
CO[C@H]1/C=C/O[C@@]2(C)Oc3c(C)c(O)c4c(O)c(c(/C=N/N5CCN(C)CC5)c(O)c4c3C2=O)NC(=O)/C(C)=C\C=C\[C@H](C)[C@H](O)[C@@H](C)[C@@H](O)[C@@H](C)[C@H](OC(C)=O)[C@@H]1C [rifampicin],MIC reduction compared with pure rifampicin,A. baumannii (BAA-1709); with example polycarbonate 200,over 2000 folds
same,MIC of antibiotic in the presence of the antimicrobial polymer at ¼×MICp,"A. baumannii (BAA-1709); with example polycarbonate 200 at ¼×MICp (e.g., 4 μg/mL)",0.13 µg/mL
same,MIC of antibiotic in the presence of the antimicrobial polymer at ½×MICp,"A. baumannii (BAA-1709); with example polycarbonate 200 at ½×MICp (e.g., 8 μg/mL)",0.002 µg/mL
same,MIC reduction at ½×MICp of the antimicrobial polymer,E. coli; with example polycarbonate 200 at ½×MICp,over 500 fold
same,MIC of rifampicin at antimicrobial polymer concentration of ¼×MICp,"[2]; antibiotic-resistant strains, with example polycarbonate 200",0.5 µg/mL
same,MIC reduction of rifampicin with polycarbonates of first chemical structure 100,[2]; both susceptible and antibiotic-resistant A. baumannii strains,up to 2048 fold
same,Delay of resistance of the bacteria against the antibiotic,A. baumannii BAA-1709 [1],17 generations
same,MBC,A. baumannii strains,0.015 µg/mL
same,MBC,E. aerogenes,2 µg/mL
same,MBC,K. pneumoniae,0.5 µg/mL
Polymyxin B,MIC of rifampicin at 1/2 × MIC of adjuvant,A. baumannii (BAA-1709),0.5 µg/mL
same,MIC of rifampicin at 1/4 × MIC of adjuvant,A. baumannii (BAA-1709),2.0 µg/mL
same,MIC of rifampicin at 1/8 × MIC of adjuvant,A. baumannii (BAA-1709),3.9 µg/mL
same,Bactericidal activity of rifampicin combined with adjuvant (CFU over time),A. baumannii BAA-1709 [3],no bactericidal activity over 24 h; also recorded: no bactericidal effect up to 24 hours
colistin,MIC of rifampicin at 1/2 × MIC of adjuvant,A. baumannii (BAA-1709),0.06 µg/mL
same,MIC of rifampicin at 1/4 × MIC of adjuvant,A. baumannii (BAA-1709),2.0 µg/mL
same,MIC of rifampicin at 1/8 × MIC of adjuvant,A. baumannii (BAA-1709),3.9 µg/mL
same,Bactericidal activity of rifampicin combined with adjuvant (CFU over time),A. baumannii BAA-1709 [3],no bactericidal activity over 24 h; also recorded: no bactericidal effect up to 24 hours
same,Effective dose of colistin as concentration of example polycarbonate 200 increases,[4],reduced
